Results published in patent US20150105252A1, “SUBSTITUTED PYRAZOLES AS HERBICIDES” (E I DU PONT DE NEMOURS AND COMPANY, priority 2013, published 2015).

Experiments:
crabgrass, large = assay: Test A postemergence; type: in vivo, Digitaria sanguinalis
Method in brief: (§1)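 Injury readout: eye-scored versus untreated controls, 0 to 100. Exposure period: ~10 days, greenhouse. Application: soil-directed spray over sown seed (pre) or spray on seedlings 2–10 cm tall with one or two leaves (post), compound carried in non-phytotoxic solvent including surfactant.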

corn = assay: Test A postemergence; type: in vivo, Zea mays
Method in brief: as §1

barnyardgrass = assay: Test A preemergence; type: in vivo, Echinochloa crus-galli; conditions: preemergence
Method in brief: as §1

velvetleaf = assay: Test A postemergence; type: in vivo, Abutilon theophrasti
Method in brief: as §1

[1] = Postemergence, 500 g ai/ha, 0 to 100 scale (0 no effect, 100 complete control)
[2] = postemergence, 125 g ai/ha, about 10 days, visual rating on 0 to 100 scale (0 no effect, 100 complete control)
[3] = 500 g ai/ha, visual injury after approx. 10 days, 0 to 100 scale (0 no effect, 100 complete control)

CCCc1cc(C(=O)NCC(F)(F)F)nn1Cc1cc(C(F)(F)F)nn1C [Compound 138]
Crabgrass, Large plant response rating (crabgrass, large; [1]): 100 | Crabgrass, Large plant response rating (crabgrass, large; [2]): 100 | Corn plant response rating (corn; [1]): 90 | Corn plant response rating (corn; [2]): 80 | Barnyardgrass plant response rating (barnyardgrass; 125 g ai/ha, visual injury, 0 to 100 scale, approx. 10 days): 100 | Barnyardgrass plant response rating (barnyardgrass; [3]): 100 | Velvetleaf plant response rating (velvetleaf; [1]): 100 | Velvetleaf plant response rating (velvetleaf; [2]): 60

CCc1cc(C(=O)NCC(F)(F)F)nn1Cc1cc(OC(F)F)nn1C [Compound 206]
Corn plant response rating (corn; [1]): 60 | Corn plant response rating (corn; [2]): 30 | Barnyardgrass plant response rating (0 to 100 scale, 0 is no effect, 100 is complete control) (barnyardgrass; 125 g ai/ha, visual injury approx. 10 days after treatment): 0 | Barnyardgrass plant response rating (barnyardgrass; [3]): 90
